Laboratory results reported in US11402382B2, “Diagnostic and therapeutic methods for cancer” (Genentech, Inc., priority 2017, dated 2022).

Tests used:
[1] = system: vascular signature, Th1 chemokine, CD8 T-effector and NK cell genes in mRCC tumor biopsies; test: Phase Ib tumor biopsy gene expression analysis (Fluidigm PCR panel, NanoString panel); assay type: in vivo, human
Experimental: RNA isolation was performed as described by Schleifman et al. (PLoS One 8:e74231, 2014). Briefly, tumor FFPE sections were macro dissected to enrich for neoplastic tissue, and tissue was lysed using tumor lysis buffer and Proteinase K to allow for complete digestion and release of nucleic acids. RNA was isolated using the High Pure FFPE RNA Micro Kit (Roche Applied Sciences, Indianapolis, Ind.) according to the manufacturer's protocol. DNA was isolated using the QIAAMP® DNA FFPE Tissue Kit (Qiagen, Hilden, Germany) according to the manufacturer's protocol. RNA and DNA were stored at 280 uC until the analyses were performed.
Gene-expression analysis was performed using the BioMark HD™ real-time PCR Platform (Fluidigm) as described by Schleifman et al. (PLoS One 8:e74231, 2014). All TAQMAN® assays in the expression panel used FAM™ dye-labeled TAQMAN® minor groove binder (MGB) probes and ordered through Life Technologies either made-to-order or custom-designed, including four reference genes: SP2, GUSB, TMEM55B and VPS33B. A geometric median of the Ct values for the four reference genes (SP2, GUSB, TMEM55B and VPS33B) was calculated for each sample, and expression levels were determined using the delta Ct (ΔCt) method as follows: Ct (target Gene)2GeoMedian Ct (reference genes). Median mRNA expression levels (as measured by immunochip (iChip)) across patients on study were used as cutoffs to derive high- versus low-expression categorization. P values were determined by t test.
NanoString gene expression data were processed using the R/Bioconductor package “NanoStringQCPro.” Raw counts were adjusted by positive control counts before probe- and lane-specific background was calculated based on both negative controls and blank measurements. After background correction, counts were log2 transformed and normalized by housekeeping gene expression (TMEM55B, VPS33B, TBP, and TUBB).
In addition to safety, tolerability, and clinical activity, one key objective of the phase Ib study described above was to evaluate the mechanism of combination activity. The trial design included a run-in period with bevacizumab to specifically interrogate the effects of bevacizumab on the local tumor immune microenvironment, followed by combination therapy with immune checkpoint blockade using atezolizumab. Tumor biopsies and blood were collected prior to treatment, 15-18 days following bevacizumab, and 4-6 weeks after the atezolizumab and bevacizumab combination treatment had been initiated.
To identify tumor markers associated with bevacizumab monotherapy or combination therapy, gene expression analysis was performed using both a 90 gene PCR-based Fluidigm panel and an 800 gene custom NanoString panel. […]

[2] = system: immune and vasculature markers in mRCC tumor sections; test: Phase Ib tumor immunohistochemistry (CD34/αSMA, CD8, Ki67/CD8, MHC-I, PD-L1); assay type: in vivo, human
Experimental: Formalin-fixed, paraffin-embedded (FFPE) tissue sections of 4 μm thickness were stained for PD-L1 with an anti-human PD-L1 rabbit monoclonal antibody (clone SP142; Ventana, Tucson, Ariz.) on an automated staining platform (BenchMark; Ventana) using a concentration of […], with signal visualization by diaminobenzidine; sections were counter-stained with haematoxylin. PD-L1 expression was evaluated on tumor cells and tumor-infiltrating immune cells. […] For tumor-infiltrating immune cells, the percentage of PD-L1-positive tumor-infiltrating immune cells occupying the tumor was determined. […] Specimens were scored as IHC 0, 1, 2, or 3 if <1%, ≥1% but <5%, ≥5% but <10%, or ≥10% of cells per area were PD-L1 positive, respectively. […]
All MHC-I IHC steps were carried out on the Ventana Discovery XT automated platform (Ventana Medical Systems; Tucson, Ariz.). […] Bound primary antibody was detected by the OMNIMAP™ anti-rabbit HRP detection kit, followed by DAB (Ventana Medical Systems; Tucson, Ariz.). […] MHC-I staining in tumor cells was scored using an H-score system. […] Relative to the overall tumor area, the percentage of cells at different staining intensities was determined by visual assessment. […] Cases were scored by two independent pathologists. […]

bevacizumab: recombinant humanized anti-VEGF monoclonal antibody, also known as rhuMAb VEGF or AVASTIN®
expression of genes associated with the neo-vasculature (VEGF downstream signaling) ([1]; both on-treatment time points vs pre-treatment, all patients): significantly decreased
VEGF transcript expression in tumors ([1]; normalized to housekeeping gene expression, FIG. 11): upregulation
consistent changes in FasL gene expression ([1]; on-treatment tumor): not observed
patients showing a significant increase in gene signatures related to Th1 signaling ([1]; six patients with paired biopsies): four of the six
effect on vessels, dual staining of CD34 with αSMA ([2]; immature or unstable vessels (CD34+/αSMA−)): primarily affected
MHC-I staining ([2]; on-treatment tumor vs pre-treatment): increase
